From patent US20080176936A1, “Classes of Compounds that Interact with Integrins” (priority 2005, published 2008)

Tests used:
αllbβ3 integrin = target: T1, αllbβ3 integrin (Homo sapiens, UniProt P05106+P08514); assay: ELISA: inhibition of binding of αllbβ3 integrin membrane preparation to coated extracellular matrix protein; conditions: human platelet membrane preparation
T1 construct: Human platelet membrane preparations were used as a source of αllbβ3 integrin; from tissue; host or cells: human platelets (membrane preparation)
T1 sequence (P08514 32-887 limits assumed): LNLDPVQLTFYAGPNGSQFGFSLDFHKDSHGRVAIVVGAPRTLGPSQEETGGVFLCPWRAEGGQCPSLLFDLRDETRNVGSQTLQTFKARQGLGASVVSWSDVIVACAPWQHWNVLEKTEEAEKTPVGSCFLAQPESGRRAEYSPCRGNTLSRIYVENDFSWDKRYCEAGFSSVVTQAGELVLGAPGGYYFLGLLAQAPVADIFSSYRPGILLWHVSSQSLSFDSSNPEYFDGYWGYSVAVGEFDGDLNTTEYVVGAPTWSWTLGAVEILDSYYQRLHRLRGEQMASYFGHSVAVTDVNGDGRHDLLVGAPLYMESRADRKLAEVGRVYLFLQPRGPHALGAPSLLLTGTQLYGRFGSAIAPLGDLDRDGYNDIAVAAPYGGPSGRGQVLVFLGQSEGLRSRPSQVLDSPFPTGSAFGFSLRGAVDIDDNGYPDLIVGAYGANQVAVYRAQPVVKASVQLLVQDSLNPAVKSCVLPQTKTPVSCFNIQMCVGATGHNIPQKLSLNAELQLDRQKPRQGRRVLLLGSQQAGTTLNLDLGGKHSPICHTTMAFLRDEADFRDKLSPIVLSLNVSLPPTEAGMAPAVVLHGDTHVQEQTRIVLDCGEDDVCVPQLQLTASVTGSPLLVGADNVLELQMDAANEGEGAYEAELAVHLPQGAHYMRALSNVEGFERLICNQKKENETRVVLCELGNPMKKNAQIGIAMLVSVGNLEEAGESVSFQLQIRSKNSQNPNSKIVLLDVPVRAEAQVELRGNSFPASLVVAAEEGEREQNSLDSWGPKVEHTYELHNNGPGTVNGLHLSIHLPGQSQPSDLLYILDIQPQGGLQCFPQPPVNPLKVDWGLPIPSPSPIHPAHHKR
T1 sequence (P08514 891-1039 partner limits assumed): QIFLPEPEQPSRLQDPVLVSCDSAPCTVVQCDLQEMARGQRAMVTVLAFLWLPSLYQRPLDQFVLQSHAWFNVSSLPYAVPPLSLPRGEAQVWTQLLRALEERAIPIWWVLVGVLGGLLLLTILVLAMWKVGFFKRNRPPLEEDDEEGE
T1 sequence (P05106 27-788): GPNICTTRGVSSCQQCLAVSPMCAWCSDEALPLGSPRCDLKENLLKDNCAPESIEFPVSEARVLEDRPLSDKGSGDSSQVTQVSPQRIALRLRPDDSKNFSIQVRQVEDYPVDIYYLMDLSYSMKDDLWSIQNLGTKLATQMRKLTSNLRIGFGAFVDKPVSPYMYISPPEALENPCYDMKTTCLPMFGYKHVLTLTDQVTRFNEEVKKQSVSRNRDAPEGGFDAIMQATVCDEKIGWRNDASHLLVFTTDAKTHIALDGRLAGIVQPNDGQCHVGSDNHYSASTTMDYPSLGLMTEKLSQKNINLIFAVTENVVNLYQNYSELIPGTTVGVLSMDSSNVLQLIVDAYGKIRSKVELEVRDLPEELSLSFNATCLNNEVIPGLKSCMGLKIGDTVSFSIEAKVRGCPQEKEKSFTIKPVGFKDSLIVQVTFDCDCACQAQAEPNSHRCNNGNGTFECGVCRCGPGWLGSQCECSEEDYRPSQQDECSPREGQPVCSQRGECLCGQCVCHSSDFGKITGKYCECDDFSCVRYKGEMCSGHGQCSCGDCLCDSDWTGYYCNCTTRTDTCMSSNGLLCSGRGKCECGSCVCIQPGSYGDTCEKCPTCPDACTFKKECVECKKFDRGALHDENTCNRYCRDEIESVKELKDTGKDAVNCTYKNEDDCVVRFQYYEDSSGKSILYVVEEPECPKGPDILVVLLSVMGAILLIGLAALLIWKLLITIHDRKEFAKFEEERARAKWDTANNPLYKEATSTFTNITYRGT
Method: (§1) An ELISA assay based on the published method of Bethert et al., 2000, J Biol Chem 275, 33308-23, was employed.
(§2) Briefly, appropriate microtitre plates were coated with either Fibrinogen or Vitronectin (10 μg/well). These extracellular matrix proteins contain the RGD amino acid sequence that is recognized by αllbβ3 integrin. Human platelet membrane preparations were used as a source of αllbβ3 integrin and the cell line WM-115 was used as a source of αVβ3 integrin. Inhibition of the binding of αllbβ3 integrin containing membrane preparations to the extracellular matrix protein was determined by pre-incubating the platelet membrane preparation with test or control compounds. The binding of the αllbβ3 integrin containing membrane was the quantitated by using a rabbit anti-integrinβ3 antibody, a horse radish peroxidase coupled second antibody and a standard colorimetric detection system.

αVβ3 integrin = target: T2, αVβ3 integrin (Homo sapiens, UniProt P05106+P06756); assay: ELISA: inhibition of binding of αVβ3 integrin (source WM-115 cell line) to coated extracellular matrix protein; conditions: WM-115 cell line as integrin source
T2 construct: the cell line WM-115 was used as a source of αVβ3 integrin; endogenous in cells; host or cells: WM-115 cell line
T2 sequence (P06756 31-889 limits assumed): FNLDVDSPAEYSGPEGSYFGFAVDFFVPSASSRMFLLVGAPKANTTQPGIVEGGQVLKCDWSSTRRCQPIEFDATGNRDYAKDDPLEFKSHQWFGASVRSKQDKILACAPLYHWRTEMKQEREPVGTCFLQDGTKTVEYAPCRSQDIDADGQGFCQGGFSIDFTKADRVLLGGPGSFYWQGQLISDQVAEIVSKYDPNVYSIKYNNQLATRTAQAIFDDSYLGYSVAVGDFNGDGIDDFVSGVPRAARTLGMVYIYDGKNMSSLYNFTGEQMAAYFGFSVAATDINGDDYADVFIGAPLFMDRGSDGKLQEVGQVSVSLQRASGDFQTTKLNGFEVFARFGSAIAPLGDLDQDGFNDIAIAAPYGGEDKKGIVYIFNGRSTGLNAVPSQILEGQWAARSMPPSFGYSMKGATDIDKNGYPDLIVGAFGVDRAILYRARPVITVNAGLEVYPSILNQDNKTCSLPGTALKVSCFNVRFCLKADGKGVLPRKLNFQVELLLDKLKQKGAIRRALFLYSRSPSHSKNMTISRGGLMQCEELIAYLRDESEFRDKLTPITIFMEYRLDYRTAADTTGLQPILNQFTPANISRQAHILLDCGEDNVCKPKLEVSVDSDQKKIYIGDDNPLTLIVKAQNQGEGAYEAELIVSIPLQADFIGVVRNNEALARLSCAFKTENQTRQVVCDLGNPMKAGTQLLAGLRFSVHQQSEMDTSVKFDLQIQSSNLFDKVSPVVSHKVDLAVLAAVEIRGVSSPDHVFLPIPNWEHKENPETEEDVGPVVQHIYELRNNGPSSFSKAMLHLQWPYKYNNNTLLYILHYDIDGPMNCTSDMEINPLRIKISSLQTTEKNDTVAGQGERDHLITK
T2 sequence (P06756 891-1048 partner limits assumed): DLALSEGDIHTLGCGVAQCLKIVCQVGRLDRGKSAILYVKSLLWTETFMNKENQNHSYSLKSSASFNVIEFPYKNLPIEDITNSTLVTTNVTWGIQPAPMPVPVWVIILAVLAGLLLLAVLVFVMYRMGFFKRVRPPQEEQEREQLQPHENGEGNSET
T2 sequence (P05106 27-788): as the sequence (P05106 27-788) above
Method: as §1, §2

SMILES: CCOC1C(O)C(COCc2cccc(N)c2)OC(OCc2ccccc2)C1NC(=O)CCC(=O)O (single isomer, unassigned) [Compound 89]
- INHIBITION @ 250 uM RECEPTOR allBb3 SUBSTRATE FIBRINOGEN (αllbβ3 integrin): − (0% to 35% inhibition at 250 micromolar)
- INHIBITION 250 uM RECEPTOR allBb3 SUBSTRATE VITRONECTIN (αllbβ3 integrin): +++ (81% to 100% inhibition at 250 micromolar)
- INHIBITION 250 uM RECEPTOR aVb3 SUBSTRATE FIBRINOGEN (αVβ3 integrin): + (36% to 60% inhibition at 250 micromolar)

SMILES: COC1OC(COCC(=O)O)C(O)C(OCc2ccccc2)C1NC(=O)c1ccc(CN)cc1 (single isomer, unassigned) [Compound 127]
- INHIBITION @ 250 uM RECEPTOR allBb3 SUBSTRATE FIBRINOGEN (αllbβ3 integrin): − (0% to 35% inhibition at 250 micromolar)
- INHIBITION 250 uM RECEPTOR allBb3 SUBSTRATE VITRONECTIN (αllbβ3 integrin): − (0% to 35% inhibition at 250 micromolar)
- INHIBITION 250 uM RECEPTOR aVb3 SUBSTRATE FIBRINOGEN (αVβ3 integrin): − (0% to 35% inhibition at 250 micromolar)

SMILES: COC1OC(COCc2cccc(N)c2)C(O)C(OCc2ccc(Br)cc2)C1NC(=O)c1ccc(C(=O)O)cc1 (single isomer, unassigned) [Compound 4]
- INHIBITION @ 250 uM RECEPTOR allBb3 SUBSTRATE FIBRINOGEN (αllbβ3 integrin): − (0% to 35% inhibition at 250 micromolar)
- INHIBITION 250 uM RECEPTOR allBb3 SUBSTRATE VITRONECTIN (αllbβ3 integrin): − (0% to 35% inhibition at 250 micromolar)
- INHIBITION 250 uM RECEPTOR aVb3 SUBSTRATE FIBRINOGEN (αVβ3 integrin): + (36% to 60% inhibition at 250 micromolar)

SMILES: CCOCC1OC(OCc2ccccc2)C(NC(=O)c2cccc(N)c2)C(OCc2ccc(C(=O)O)cc2)C1O (single isomer, unassigned) [Compound 100]
- INHIBITION @ 250 uM RECEPTOR allBb3 SUBSTRATE FIBRINOGEN (αllbβ3 integrin): − (0% to 35% inhibition at 250 micromolar)
- INHIBITION 250 uM RECEPTOR allBb3 SUBSTRATE VITRONECTIN (αllbβ3 integrin): +++ (81% to 100% inhibition at 250 micromolar)
- INHIBITION 250 uM RECEPTOR aVb3 SUBSTRATE FIBRINOGEN (αVβ3 integrin): − (0% to 35% inhibition at 250 micromolar)

SMILES: Nc1cccc(C(=O)NC2C(OCc3ccccc3)OC(CO)C(O)C2OCc2ccc(C(=O)O)cc2)c1 (single isomer, unassigned) [Compound 101]
- INHIBITION @ 250 uM RECEPTOR allBb3 SUBSTRATE FIBRINOGEN (αllbβ3 integrin): − (0% to 35% inhibition at 250 micromolar)
- INHIBITION 250 uM RECEPTOR allBb3 SUBSTRATE VITRONECTIN (αllbβ3 integrin): ++ (61% to 80% inhibition at 250 micromolar)
- INHIBITION 250 uM RECEPTOR aVb3 SUBSTRATE FIBRINOGEN (αVβ3 integrin): + (36% to 60% inhibition at 250 micromolar)

SMILES: CC(=O)NC1C(OCCNC(=N)N)OC(COCC(=O)O)C(O)C1OCc1ccccc1 (single isomer, unassigned) [Compound 113]
- INHIBITION @ 250 uM RECEPTOR allBb3 SUBSTRATE FIBRINOGEN (αllbβ3 integrin): + (36% to 60% inhibition at 250 micromolar)
- INHIBITION 250 uM RECEPTOR allBb3 SUBSTRATE VITRONECTIN (αllbβ3 integrin): +++ (81% to 100% inhibition at 250 micromolar)
- INHIBITION 250 uM RECEPTOR aVb3 SUBSTRATE FIBRINOGEN (αVβ3 integrin): +++ (81% to 100% inhibition at 250 micromolar)

SMILES: COC1OC(COCC(=O)O)C(O)C(OCc2cccc(N)c2)C1NC(=O)c1ccccc1 (single isomer, unassigned) [Compound 27]
- INHIBITION @ 250 uM RECEPTOR allBb3 SUBSTRATE FIBRINOGEN (αllbβ3 integrin): ++ (61% to 80% inhibition at 250 micromolar)
- INHIBITION 250 uM RECEPTOR allBb3 SUBSTRATE VITRONECTIN (αllbβ3 integrin): +++ (81% to 100% inhibition at 250 micromolar)
- INHIBITION 250 uM RECEPTOR aVb3 SUBSTRATE FIBRINOGEN (αVβ3 integrin): +++ (81% to 100% inhibition at 250 micromolar)

SMILES: COC1OC(COCC(=O)O)C(O)C(OCc2ccccc2)C1NC(=O)c1ccc(CNC(=N)N)cc1 (single isomer, unassigned) [Compound 128]
- INHIBITION @ 250 uM RECEPTOR allBb3 SUBSTRATE FIBRINOGEN (αllbβ3 integrin): − (0% to 35% inhibition at 250 micromolar)
- INHIBITION 250 uM RECEPTOR allBb3 SUBSTRATE VITRONECTIN (αllbβ3 integrin): +++ (81% to 100% inhibition at 250 micromolar)
- INHIBITION 250 uM RECEPTOR aVb3 SUBSTRATE FIBRINOGEN (αVβ3 integrin): − (0% to 35% inhibition at 250 micromolar)

SMILES: CCOC1OC(COCc2ccc(Br)cc2)C(O)C(OCc2cccc(N)c2)C1NC(=O)c1ccc(C(=O)O)cc1 (single isomer, unassigned) [Compound 73]
- INHIBITION @ 250 uM RECEPTOR allBb3 SUBSTRATE FIBRINOGEN (αllbβ3 integrin): ++ (61% to 80% inhibition at 250 micromolar)
- INHIBITION 250 uM RECEPTOR allBb3 SUBSTRATE VITRONECTIN (αllbβ3 integrin): +++ (81% to 100% inhibition at 250 micromolar)
- INHIBITION 250 uM RECEPTOR aVb3 SUBSTRATE FIBRINOGEN (αVβ3 integrin): − (0% to 35% inhibition at 250 micromolar)

SMILES: COC1OC(COCC(=O)O)C(O)C(OCc2ccccc2)C1NC(=O)C1CCC(CN)CC1 (single isomer, unassigned) [Compound 138]
- INHIBITION @ 250 uM RECEPTOR allBb3 SUBSTRATE FIBRINOGEN (αllbβ3 integrin): − (0% to 35% inhibition at 250 micromolar)
- INHIBITION 250 uM RECEPTOR allBb3 SUBSTRATE VITRONECTIN (αllbβ3 integrin): +++ (81% to 100% inhibition at 250 micromolar)
- INHIBITION 250 uM RECEPTOR aVb3 SUBSTRATE FIBRINOGEN (αVβ3 integrin): − (0% to 35% inhibition at 250 micromolar)

SMILES: Nc1cccc(COC2C(O)C(COCc3ccc(Br)cc3)OC(O)C2NC(=O)c2ccc(C(=O)O)cc2)c1 (single isomer, unassigned) [Compound 75]
- INHIBITION @ 250 uM RECEPTOR allBb3 SUBSTRATE FIBRINOGEN (αllbβ3 integrin): + (36% to 60% inhibition at 250 micromolar)
- INHIBITION 250 uM RECEPTOR allBb3 SUBSTRATE VITRONECTIN (αllbβ3 integrin): +++ (81% to 100% inhibition at 250 micromolar)
- INHIBITION 250 uM RECEPTOR aVb3 SUBSTRATE FIBRINOGEN (αVβ3 integrin): − (0% to 35% inhibition at 250 micromolar)
